The text below walks through data of patent US11267824B2, “Inhibitors of indoleamine 2,3-dioxygenase and/or tryptophan 2,3-dioxygenase” (IDORSIA PHARMACEUTICALS LTD, priority 2017, dated 2022).

Experiment [1] has as its target Recombinant full-length human IDO1 (Homo sapiens (Human), UniProt P14902). Nature of the experiment: IDO1 enzymatic assay (IDO inhibitory activity). In kind it is biochemical. To be noted: 2 nM enzyme, 5 μM L-tryptophan, pH6.5, 30 min pre-incubation, NFK quantified by LCMS; mean values if measured multiple times; read-out: hIDO activity (IC50 in nM). The protocol:
1) Testing Compounds for IDO Inhibitory Activity in an IDO1 Enzymatic Assay:
Recombinant full-length human IDO1 with a N-terminal hexahistidine tag expressed in E. coli and purified to homogeneity is incubated at a final concentration of 2 nM in assay buffer consisting of 37.5 mM phosphate buffer at pH6.5 supplemented with 10 mM sodium L-ascorbate, 0.45 μM methylene blue, 50 U/ml catalase, 0.01% BSA, and 0.01% Tween 20 (protocol modified from Seegers et al, JBS 2014). Example compounds are serially diluted in DMSO, further diluted in phosphate buffer, and added to the enzyme at final concentrations ranging from 10 μM to 0.5 nM. The final DMSO concentration is 0.6%. Following a pre-incubation of 30 minutes at RT, the reaction is started by the addition of L-tryptophan at a final concentration of 5 μM in assay buffer. After 30 minutes of incubation at RT, 3 μL of the reaction mixture are transferred to a 384 deep well plate containing 25 μL of deionized water. 100 μl of 200 nM L-Tryptophan-(indole-d5) in cold 100% methanol are added followed by a 10 minutes centrifugation at 4,000 rpm at 4° C. An additional 75 μL of deionized water are then added and followed by a 10 minutes centrifugation at 4,000 rpm at 4° C. The product of the reaction N′-Formylkynurenine (NFK) is quantified by LCMS and normalized to the L-Tryptophan-(indole-d5) signal. Samples with 0.6% DMSO (0% effect) and a TDO/IDO inhibitor (100% effect) are used as control samples to set the parameters for the non-linear regression necessary for the determination of the half-maximal inhibitory concentration (IC50) for each compound. For each compound concentration the percentage of activity compared to 0% and 100% effect is calculated as average ±STDEV (each concentration measured in duplicate). IC50 values and curves are generated with XLfit software (IDBS) using Dose-Response One Site model 203 (four parameter logistic curve model). When compounds are measured multiple times, mean values are given.

The target in experiment [2] is Recombinant human TDO comprising amino acids 19-407 (Homo sapiens (Human), UniProt P48775). Nature of the experiment: TDO2 enzymatic assay (TDO inhibitory activity). In kind it is biochemical. The conditions noted are these: 15 nM enzyme, 200 μM L-tryptophan, pH7, 30 min pre-incubation, NFK quantified by LCMS; mean values if measured multiple times; read-out: hTDO activity (IC50 in nM). The protocol:
2) Testing Compounds for TDO Inhibitory Activity in a TDO2 Enzymatic Assay:
Recombinant human TDO comprising amino acids 19-407 with a N-terminal hexahistidine tag expressed in E. coli and purified to homogeneity is incubated at a final concentration of 15 nM in assay buffer consisting of 75 mM phosphate buffer at pH7 supplemented with 100 μM ascorbic acid, 50 U/ml Catalase, 0.01% BSA, and 0.01% Tween 20 (protocol modified from Seegers et al, JBS 2014). Example compounds are serially diluted in DMSO, further diluted in phosphate buffer, and added to the reaction mixture at final concentrations ranging from 10 μM to 0.5 nM. The final DMSO concentration is 0.6%. Following a pre-incubation of 30 minutes at RT, the reaction is started by the addition of L-tryptophan at a final concentration of 200 μM in assay buffer. After 30 minutes of incubation at RT, 3 μL of the reaction mixture are transferred to a 384 deep well plate containing 25 μL of deionized water. 100 μl of 200 nM L-Tryptophan-(indole-d5) in cold 100% methanol are added followed by a 10 minutes centrifugation at 4,000 rpm at 4° C. An additional 75 μL of deionized water are then added and followed by a 10 minutes centrifugation at 4,000 rpm at 4° C. The product of the reaction N′-Formylkynurenine (NFK) is quantified by LCMS and normalized to the L-Tryptophan-(indole-d5) signal. Samples with 0.6% DMSO (0% effect) and a TDO/IDO inhibitor (100% effect) are used as control samples to set the parameters for the non-linear regression necessary for the determination of the half-maximal inhibitory concentration (IC50) for each compound. For each compound concentration the percentage of activity compared to 0% and 100% effect is calculated as average±STDEV (each concentration measured in duplicate). IC50 values and curves are generated with XLfit software (IDBS) using Dose-Response One Site model 203 (four parameter logistic curve model). When compounds are measured multiple times, mean values are given.

Chain of Recombinant full-length human IDO1 (P14902 whole entry): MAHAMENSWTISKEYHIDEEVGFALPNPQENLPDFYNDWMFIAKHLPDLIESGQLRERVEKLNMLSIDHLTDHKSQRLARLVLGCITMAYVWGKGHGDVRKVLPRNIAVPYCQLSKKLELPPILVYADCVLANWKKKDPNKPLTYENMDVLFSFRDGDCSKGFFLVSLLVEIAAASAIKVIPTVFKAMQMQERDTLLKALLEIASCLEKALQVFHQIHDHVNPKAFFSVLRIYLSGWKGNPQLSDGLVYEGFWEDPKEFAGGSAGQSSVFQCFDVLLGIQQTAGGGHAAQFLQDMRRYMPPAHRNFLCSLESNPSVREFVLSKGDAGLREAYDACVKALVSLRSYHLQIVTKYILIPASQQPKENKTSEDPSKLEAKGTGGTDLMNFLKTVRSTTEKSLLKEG
Chain of Recombinant human TDO comprising amino acids 19-407 (P48775 19-406 limits assumed): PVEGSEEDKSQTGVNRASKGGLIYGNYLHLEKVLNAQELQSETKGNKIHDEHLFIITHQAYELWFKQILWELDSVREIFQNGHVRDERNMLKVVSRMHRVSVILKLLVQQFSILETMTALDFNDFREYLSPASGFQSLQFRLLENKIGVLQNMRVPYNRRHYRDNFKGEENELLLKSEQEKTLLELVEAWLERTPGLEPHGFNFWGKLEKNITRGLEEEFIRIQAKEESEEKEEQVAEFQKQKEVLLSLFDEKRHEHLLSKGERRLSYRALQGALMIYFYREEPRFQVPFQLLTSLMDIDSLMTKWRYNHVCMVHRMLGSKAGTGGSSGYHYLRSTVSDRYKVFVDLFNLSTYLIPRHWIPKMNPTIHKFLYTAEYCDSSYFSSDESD

What is called IC50 is the midpoint of a concentration-inhibition curve. Turning to `OC(c1c(C2CC2)sc2cncn12)C1CCCCC1` (racemic) [Example 1, rac-Cyclohexyl(2-cyclopropylimidazo[5,1-b]thiazol-3-yl)methanol], the IC50 in experiment [1] turned out to be 15.1 nM; in experiment [2], 288 nM.

As to `Cc1sc2cncn2c1C(O)C1CCCCC1` (racemic) [Example 6, rac-Cyclohexyl-(2-methyl-imidazo[5,1-b]thiazol-3-yl)-methanol], the IC50 in experiment [1] came out at 134 nM; in experiment [2] it was 143 nM.

Take `OC(c1c(C2CCC2)sc2cncn12)C1CCCCC1` (racemic) [Example 7, rac-(2-Cyclobutylimidazo[5,1-b]thiazol-3-yl)(cyclohexyl)methanol]: the IC50 in experiment [1] amounted to 94.2 nM; in experiment [2], 324 nM.

For the molecule `OC(CC1CCCCC1)c1c(C2CCC2)sc2cncn12` (racemic) [Example 8, rac-1-(2-Cyclobutylimidazo[5,1-b]thiazol-3-yl)-2-cyclohexylethan-1-ol], the IC50 was 122 nM in experiment [1] and 256 nM in experiment [2].

Take `OC(c1c(C2CCCC2)sc2cncn12)C1CCCCC1` (racemic) [Example 9, rac-Cyclohexyl(2-cyclopentylimidazo[5,1-b]thiazol-3-yl)methanol]: the IC50 in experiment [1] is 237 nM; in experiment [2], 193 nM.

As to `OC(CC1CCCCC1)c1c(C2CCCC2)sc2cncn12` (racemic) [Example 10, rac-2-Cyclohexyl-1-(2-cyclopentylimidazo[5,1-b]thiazol-3-yl)ethan-1-ol], the IC50 in experiment [1] was 384 nM; in experiment [2] it was 277 nM.

For `CC(C)(C)c1sc2cncn2c1C(O)C1CCCCC1` (racemic) [Example 11, rac-(2-(tert-Butyl)imidazo[5,1-b]thiazol-3-yl)(cyclohexyl)methanol], the IC50 in experiment [1] is 895 nM; in experiment [2], 2050 nM.

On to `CC(C)(C)c1sc2cncn2c1C(O)CC1CCCCC1` (racemic) [Example 12, rac-1-(2-(tert-Butyl)imidazo[5,1-b]thiazol-3-yl)-2-cyclohexylethan-1-ol], for which the half-maximal inhibitory concentration (IC50) in experiment [1] amounted to 895 nM; in experiment [2], 2130 nM.

Take `OC(c1c(Cl)sc2cncn12)C1CCCCC1` (racemic) [Example 13, rac-(2-Chloroimidazo[5,1-b]thiazol-3-yl)(cyclohexyl)methanol]: the IC50 is 110 nM in experiment [1] and 172 nM in experiment [2].

Take `OC(c1c(Br)sc2cncn12)C1CCCCC1` (racemic) [Example 14, rac-(2-Bromoimidazo[5,1-b]thiazol-3-yl)(cyclohexyl)methanol]: the IC50 is 28 nM in experiment [1] and 218 nM in experiment [2].

`OC(c1cccs1)c1c(Cl)sc2cncn12` (racemic) [Example 15, rac-(2-Chloro-imidazo[5,1-b]thiazol-3-yl)-thiophen-2-yl-methanol]: the values for the IC50 in experiment [1] and in experiment [2] were 333 nM and 690 nM, respectively.

With `OC(CC1CCCCC1)c1c(Cl)sc2cncn12` (racemic) [Example 16, rac-1-(2-Chloro-imidazo[5,1-b]thiazol-3-yl)-2-cyclohexyl-ethanol], the IC50 in experiment [1] is 159 nM; in experiment [2] it was 1210 nM.

With `OC(c1c(Cl)sc2cncn12)C1CCCCCC1` (racemic) [Example 17, rac-(2-Chloro-imidazo[5,1-b]thiazol-3-yl)-cycloheptyl-methanol], the IC50 in experiment [1] is 170 nM; in experiment [2], 301 nM.

For `OC(c1c(Cl)sc2cncn12)C1CC1` (racemic) [Example 19, rac-(2-Chloro-imidazo[5,1-b]thiazol-3-yl)-cyclopropyl-methanol], the values for the IC50 in experiment [1] and in experiment [2] were 1040 nM and 2660 nM, respectively.

With `OC(CC1CC(F)(F)C1)c1c(C2CC2)sc2cncn12` (racemic) [Example 21, rac-1-(2-Cyclopropyl-imidazo[5,1-b]thiazol-3-yl)-2-(3,3-difluoro-cyclobutyl)-ethanol], the IC50 in experiment [1] came to 113 nM; in experiment [2] it was 470 nM.

Consider `OC(CC12CCC(CC1)C2)c1c(C2CC2)sc2cncn12` (racemic) [Example 22, rac-2-Bicyclo[2.2.1]hept-1-yl-1-(2-cyclopropyl-imidazo[5,1-b]thiazol-3-yl)-ethanol], for which the IC50 in experiment [1] came out at 33.7 nM; in experiment [2], 177 nM.

In the case of `CC1(CC(O)c2c(C3CC3)sc3cncn23)CCCCC1` (racemic) [Example 23, rac-1-(2-Cyclopropyl-imidazo[5,1-b]thiazol-3-yl)-2-(1-methyl-cyclohexyl)-ethanol], the IC50 in experiment [1] came out at 40.5 nM; in experiment [2], 204 nM.

As to `OC(CC1CCCC1)c1c(C2CC2)sc2cncn12` (racemic) [Example 24, rac-2-Cyclopentyl-1-(2-cyclopropyl-imidazo[5,1-b]thiazol-3-yl)-ethanol], the IC50 turned out to be 25.6 nM in experiment [1] and 394 nM in experiment [2].

Take `CC1(C)CCC(CC(O)c2c(C3CC3)sc3cncn23)CC1` (racemic) [Example 25, rac-1-(2-Cyclopropyl-imidazo[5,1-b]thiazol-3-yl)-2-(4,4-dimethyl-cyclohexyl)-ethanol]: the IC50 turned out to be 75.2 nM in experiment [1] and 775 nM in experiment [2].

With `CC1(C)CCC(C(O)c2c(C3CC3)sc3cncn23)CC1` (racemic) [Example 26, rac-(2-Cyclopropyl-imidazo[5,1-b]thiazol-3-yl)-(4,4-dimethyl-cyclohexyl)-methanol], the values for the IC50 in experiment [1] and in experiment [2] were 25.2 nM and 387 nM, respectively.

With `OC(CC1CCCCCC1)c1c(C2CC2)sc2cncn12` (racemic) [Example 28, rac-2-Cycloheptyl-1-(2-cyclopropyl-imidazo[5,1-b]thiazol-3-yl)-ethanol], the IC50 in experiment [1] was determined as 24.3 nM; in experiment [2], 470 nM.

With `OC(c1cccs1)c1c(Br)sc2cncn12` (racemic) [Example 32, rac-(2-Bromo-imidazo[5,1-b]thiazol-3-yl)-thiophen-2-yl-methanol], the IC50 in experiment [1] came out at 63.4 nM; in experiment [2] it was 643 nM.

Turning to `OC(CC1CCCCC1)c1c(Br)sc2cncn12` (racemic) [Example 33, rac-1-(2-Bromo-imidazo[5,1-b]thiazol-3-yl)-2-cyclohexyl-ethanol], the IC50 in experiment [1] is 55.7 nM; in experiment [2] it was 1410 nM.

Consider `CC1(C)CC(C(O)c2c(C3CC3)sc3cncn23)C1` (racemic) [Example 36, rac-(2-Cyclopropyl-imidazo[5,1-b]thiazol-3-yl)-(3,3-dimethyl-cyclobutyl)-methanol], for which the IC50 was determined as 5.38 nM in experiment [1] and 269 nM in experiment [2].

Take `OC(CC1CCC(c2ccccc2)CC1)c1c(C2CC2)sc2cncn12` (racemic) [Example 37, rac-1-(2-Cyclopropyl-imidazo[5,1-b]thiazol-3-yl)-2-(4-phenyl-cyclohexyl)-ethanol]: the IC50 in experiment [1] was found to be 353 nM; in experiment [2], 2460 nM.

In the case of `CC1(CC(O)c2c(C3CC3)sc3cncn23)CCC1` (racemic) [Example 39, rac-1-(2-Cyclopropyl-imidazo[5,1-b]thiazol-3-yl)-2-(1-methyl-cyclobutyl)-ethanol], the values for the IC50 in experiment [1] and in experiment [2] were 41.7 nM and 300 nM, respectively.

On to `Cc1cscc1-c1sc2cncn2c1C(O)C1CCCCC1` (racemic) [Example 128, rac-Cyclohexyl-[2-(4-methyl-thiophen-3-yl)-imidazo[5,1-b]thiazol-3-yl]-methanol], for which the IC50 in experiment [2] was found to be 420 nM.
